From PMC6891286, “Towards the Development of an In vivo Chemical Probe for Cyclin G Associated Kinase (GAK)” (Molecules, 2019)

Assays:
Test in all cases: KINOMEscan
Type in all cases: binding
[1] = target: T1, IRAK3 (Homo sapiens, UniProt Q9Y616); details: 35 at 1 µM; read-out: % inhibition
T1 construct: purchased Eurofins DiscoverX (KINOMEscan)
Method: (§1) KinomeScan Assay on 35 was performed as previously described at EuroFins DiscoverX (Fremont, CA, USA).

[2] = target: T2, MST3 (Homo sapiens, UniProt Q9Y6E0); details: 35 at 1 µM; read-out: % inhibition
T2 construct: purchased Eurofins DiscoverX (KINOMEscan)
Method: as §1

[3] = target: T3, MST2 (Homo sapiens, UniProt Q13188); details: 35 at 1 µM; read-out: % inhibition
T3 construct: purchased Eurofins DiscoverX (KINOMEscan)
Method: as §1

[4] = target: T4, NIK (Homo sapiens, UniProt Q99558); details: 35 at 1 µM; read-out: % inhibition
T4 construct: purchased Eurofins DiscoverX (KINOMEscan)
Method: as §1

[5] = target: T5, FLT3(D835V) (Homo sapiens, UniProt P36888, D835V); details: 35 at 1 µM; read-out: % inhibition
T5 construct: purchased Eurofins DiscoverX (KINOMEscan)
Method: as §1

[6] = target: T6, BRAF(V600E) (Homo sapiens, UniProt P15056, V600E); details: 35 at 1 µM; read-out: % inhibition
T6 construct: purchased Eurofins DiscoverX (KINOMEscan)
Method: as §1

[7] = target: T7, ERK4 (Homo sapiens, UniProt P31152); details: 35 at 1 µM; read-out: % inhibition
T7 construct: purchased Eurofins DiscoverX (KINOMEscan)
Method: as §1

[8] = target: T8, LCK (Homo sapiens, UniProt P06239); details: 35 at 1 µM; read-out: % inhibition
T8 construct: purchased Eurofins DiscoverX (KINOMEscan)
Method: as §1

[9] = target: T9, ERBB3 (Homo sapiens, UniProt P21860); details: 35 at 1 µM; read-out: % inhibition
T9 construct: purchased Eurofins DiscoverX (KINOMEscan)
Method: as §1

[10] = target: T10, CAMK1D (Homo sapiens, UniProt Q8IU85); details: 35 at 1 µM; read-out: % inhibition
T10 construct: purchased Eurofins DiscoverX (KINOMEscan)
Method: as §1

[11] = target: T11, EPHA8 (Homo sapiens, UniProt P29322); details: 35 at 1 µM; read-out: % inhibition
T11 construct: purchased Eurofins DiscoverX (KINOMEscan)
Method: as §1

[12] = target: T12, HIPK2 (Homo sapiens, UniProt Q9H2X6); details: 35 at 1 µM; read-out: % inhibition
T12 construct: purchased Eurofins DiscoverX (KINOMEscan)
Method: as §1

[13] = target: T13, CDKL3 (Homo sapiens, UniProt Q8IVW4); details: 35 at 1 µM; read-out: % inhibition
T13 construct: purchased Eurofins DiscoverX (KINOMEscan)
Method: as §1

[14] = target: T14, VEGFR2 (Homo sapiens, UniProt P35968); details: 35 at 1 µM; read-out: % inhibition
T14 construct: purchased Eurofins DiscoverX (KINOMEscan)
T14 sequence (P35968 20-1356): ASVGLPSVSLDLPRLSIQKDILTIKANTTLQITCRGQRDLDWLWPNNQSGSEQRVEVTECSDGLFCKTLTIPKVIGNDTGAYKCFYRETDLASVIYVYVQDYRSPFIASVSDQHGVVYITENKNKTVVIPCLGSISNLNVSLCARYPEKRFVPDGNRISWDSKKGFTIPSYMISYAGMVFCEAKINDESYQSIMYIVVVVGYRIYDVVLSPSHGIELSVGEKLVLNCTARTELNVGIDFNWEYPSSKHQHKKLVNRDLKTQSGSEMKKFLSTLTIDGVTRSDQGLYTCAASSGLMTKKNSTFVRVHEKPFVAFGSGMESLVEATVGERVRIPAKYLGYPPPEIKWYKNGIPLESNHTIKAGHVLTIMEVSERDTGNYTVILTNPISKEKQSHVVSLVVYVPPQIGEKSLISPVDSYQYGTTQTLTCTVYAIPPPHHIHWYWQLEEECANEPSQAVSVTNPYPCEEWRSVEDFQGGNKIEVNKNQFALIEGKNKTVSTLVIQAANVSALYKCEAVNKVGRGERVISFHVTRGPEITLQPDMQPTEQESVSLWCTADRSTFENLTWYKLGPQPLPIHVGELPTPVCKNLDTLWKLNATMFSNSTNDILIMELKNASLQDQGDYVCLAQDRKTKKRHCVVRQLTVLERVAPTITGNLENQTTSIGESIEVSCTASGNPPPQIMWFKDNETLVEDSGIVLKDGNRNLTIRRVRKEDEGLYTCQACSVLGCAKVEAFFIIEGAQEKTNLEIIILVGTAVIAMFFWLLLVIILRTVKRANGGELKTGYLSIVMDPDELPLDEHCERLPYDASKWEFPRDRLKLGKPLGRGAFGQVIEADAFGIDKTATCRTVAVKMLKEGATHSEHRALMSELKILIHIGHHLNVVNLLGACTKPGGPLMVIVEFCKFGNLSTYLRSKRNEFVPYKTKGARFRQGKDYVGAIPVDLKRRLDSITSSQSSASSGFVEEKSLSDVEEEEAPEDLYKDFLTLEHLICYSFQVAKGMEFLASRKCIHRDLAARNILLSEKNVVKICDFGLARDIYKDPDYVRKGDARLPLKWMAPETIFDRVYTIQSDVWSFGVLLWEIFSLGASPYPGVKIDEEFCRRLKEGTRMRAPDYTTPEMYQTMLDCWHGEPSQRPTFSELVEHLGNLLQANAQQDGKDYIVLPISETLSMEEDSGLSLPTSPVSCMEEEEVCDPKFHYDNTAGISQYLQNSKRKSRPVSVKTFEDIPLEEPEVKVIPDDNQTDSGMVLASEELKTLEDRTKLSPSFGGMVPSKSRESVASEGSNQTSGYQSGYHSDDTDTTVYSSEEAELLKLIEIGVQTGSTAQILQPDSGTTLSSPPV
Method: as §1

[15] = target: T15, ABL1(E255K)-phosphorylated (Homo sapiens, UniProt P00519, E255K); details: 35 at 1 µM; read-out: % inhibition
T15 construct: purchased Eurofins DiscoverX (KINOMEscan)
T15 sequence (P00519 whole entry E255K): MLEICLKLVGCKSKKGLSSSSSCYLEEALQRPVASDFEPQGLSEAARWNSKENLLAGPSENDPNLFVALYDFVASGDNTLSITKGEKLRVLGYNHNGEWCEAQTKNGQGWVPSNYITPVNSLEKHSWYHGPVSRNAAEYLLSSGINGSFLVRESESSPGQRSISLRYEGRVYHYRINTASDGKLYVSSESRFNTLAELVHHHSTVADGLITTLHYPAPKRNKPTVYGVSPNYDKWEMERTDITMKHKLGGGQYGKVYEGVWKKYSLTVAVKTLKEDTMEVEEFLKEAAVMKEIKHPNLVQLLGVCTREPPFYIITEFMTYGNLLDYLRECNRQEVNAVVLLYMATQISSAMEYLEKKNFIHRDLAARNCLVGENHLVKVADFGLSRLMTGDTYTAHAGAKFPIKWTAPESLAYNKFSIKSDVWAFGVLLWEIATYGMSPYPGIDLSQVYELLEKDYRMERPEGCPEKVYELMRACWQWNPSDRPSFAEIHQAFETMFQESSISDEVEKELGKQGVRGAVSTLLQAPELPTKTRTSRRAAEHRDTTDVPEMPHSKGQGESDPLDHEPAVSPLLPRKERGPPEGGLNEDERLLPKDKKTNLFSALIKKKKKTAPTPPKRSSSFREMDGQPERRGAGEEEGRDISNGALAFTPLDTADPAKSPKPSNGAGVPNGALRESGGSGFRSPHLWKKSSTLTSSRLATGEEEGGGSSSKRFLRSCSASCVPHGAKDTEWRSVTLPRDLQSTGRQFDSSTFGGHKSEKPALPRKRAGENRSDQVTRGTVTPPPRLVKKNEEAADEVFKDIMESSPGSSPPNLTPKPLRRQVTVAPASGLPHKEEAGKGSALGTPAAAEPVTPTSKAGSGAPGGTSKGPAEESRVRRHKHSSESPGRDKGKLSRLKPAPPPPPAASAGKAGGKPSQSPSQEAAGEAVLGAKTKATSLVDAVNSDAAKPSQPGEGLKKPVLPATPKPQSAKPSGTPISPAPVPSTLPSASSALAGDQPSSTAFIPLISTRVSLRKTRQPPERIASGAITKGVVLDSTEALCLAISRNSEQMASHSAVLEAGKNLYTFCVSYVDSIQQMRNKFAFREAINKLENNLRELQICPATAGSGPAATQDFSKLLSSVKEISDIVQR
Method: as §1

[16] = target: T16, GRK4 (Homo sapiens, UniProt P32298); details: 35 at 1 µM; read-out: % inhibition
T16 construct: purchased Eurofins DiscoverX (KINOMEscan)
Method: as §1

[17] = target: T17, EGFR(L747-E749del, A750P) (Homo sapiens, UniProt P00533, A750P/DEL747-749); details: 35 at 1 µM; read-out: % inhibition
T17 construct: purchased Eurofins DiscoverX (KINOMEscan)
Method: as §1

[18] = target: T18, PIP5K2C (Homo sapiens, UniProt Q8TBX8); details: 35 at 1 µM; read-out: % inhibition
T18 construct: purchased Eurofins DiscoverX (KINOMEscan)
Method: as §1

[19] = target: T19, ACVR1B (Homo sapiens, UniProt P36896); details: 35 at 1 µM; read-out: % inhibition
T19 construct: purchased Eurofins DiscoverX (KINOMEscan)
Method: as §1

[20] = target: T20, DYRK1B (Homo sapiens, UniProt Q9Y463); details: 35 at 1 µM; read-out: % inhibition
T20 construct: purchased Eurofins DiscoverX (KINOMEscan)
Method: as §1

[21] = target: T21, SgK110 (Homo sapiens, UniProt P0C264); details: 35 at 1 µM; read-out: % inhibition
T21 construct: purchased Eurofins DiscoverX (KINOMEscan)
Method: as §1

[22] = target: T22, KIT(D816V) (Homo sapiens, UniProt P10721, D816V); details: 35 at 1 µM; read-out: % inhibition
T22 construct: purchased Eurofins DiscoverX (KINOMEscan)
Method: as §1

[23] = target: T23, MET(Y1235D) (Homo sapiens, UniProt P08581, Y1235D); details: 35 at 1 µM; read-out: % inhibition
T23 construct: purchased Eurofins DiscoverX (KINOMEscan)
Method: as §1

[24] = target: T24, FGFR2 (Homo sapiens, UniProt P21802); details: 35 at 1 µM; read-out: % inhibition
T24 construct: purchased Eurofins DiscoverX (KINOMEscan)
Method: as §1

[25] = target: T25, WNK1 (Homo sapiens, UniProt Q9H4A3); details: 35 at 1 µM; read-out: % inhibition
T25 construct: purchased EuroFins DiscoverX (Fremont, CA, USA)
Method: as §1

[26] = target: T26, RSK4(Kin.Dom.1-N-terminal) (Homo sapiens, UniProt Q9UK32); details: 35 at 1 µM; read-out: % inhibition
T26 construct: RSK4(Kin.Dom.1-N-terminal); purchased Eurofins DiscoverX (KINOMEscan)
T26 sequence (Q9UK32 1-400 limits assumed): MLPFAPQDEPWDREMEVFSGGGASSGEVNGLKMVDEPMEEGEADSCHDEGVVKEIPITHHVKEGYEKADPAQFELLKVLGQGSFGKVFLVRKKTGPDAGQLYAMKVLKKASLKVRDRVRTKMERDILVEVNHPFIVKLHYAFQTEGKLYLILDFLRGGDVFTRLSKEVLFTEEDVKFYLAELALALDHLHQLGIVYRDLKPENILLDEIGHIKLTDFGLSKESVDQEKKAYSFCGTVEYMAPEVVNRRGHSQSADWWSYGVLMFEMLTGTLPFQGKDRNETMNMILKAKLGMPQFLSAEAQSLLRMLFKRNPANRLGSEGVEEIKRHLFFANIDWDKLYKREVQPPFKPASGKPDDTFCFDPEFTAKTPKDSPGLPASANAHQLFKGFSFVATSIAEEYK
Method: as §1

[27] = target: T27, HIPK4 (Homo sapiens, UniProt Q8NE63); details: 35 at 1 µM; read-out: % inhibition
T27 construct: purchased Eurofins DiscoverX (KINOMEscan)
Method: as §1

[28] = target: T28, KIT(V559D,V654A) (Homo sapiens, UniProt P10721, V559D/V654A); details: 35 at 1 µM; read-out: % inhibition
T28 construct: purchased Eurofins DiscoverX (KINOMEscan)
Method: as §1

[29] = target: T29, ULK2 (Homo sapiens, UniProt Q8IYT8); details: 35 at 1 µM; read-out: % inhibition
T29 construct: purchased Eurofins DiscoverX (KINOMEscan)
Method: as §1

[30] = target: T30, CDK4-cyclinD3 (Homo sapiens, UniProt P11802); details: 35 at 1 µM; read-out: % inhibition
T30 construct: purchased Eurofins DiscoverX (KINOMEscan)
Method: as §1

[31] = target: T31, SRC (Homo sapiens, UniProt P12931); details: 35 at 1 µM; read-out: % inhibition
T31 construct: purchased Eurofins DiscoverX (KINOMEscan)
Method: as §1

[32] = target: T32, TBK1 (Homo sapiens, UniProt Q9UHD2); details: 35 at 1 µM; read-out: % inhibition
T32 construct: purchased Eurofins DiscoverX (KINOMEscan)
T32 sequence (Q9UHD2 whole entry): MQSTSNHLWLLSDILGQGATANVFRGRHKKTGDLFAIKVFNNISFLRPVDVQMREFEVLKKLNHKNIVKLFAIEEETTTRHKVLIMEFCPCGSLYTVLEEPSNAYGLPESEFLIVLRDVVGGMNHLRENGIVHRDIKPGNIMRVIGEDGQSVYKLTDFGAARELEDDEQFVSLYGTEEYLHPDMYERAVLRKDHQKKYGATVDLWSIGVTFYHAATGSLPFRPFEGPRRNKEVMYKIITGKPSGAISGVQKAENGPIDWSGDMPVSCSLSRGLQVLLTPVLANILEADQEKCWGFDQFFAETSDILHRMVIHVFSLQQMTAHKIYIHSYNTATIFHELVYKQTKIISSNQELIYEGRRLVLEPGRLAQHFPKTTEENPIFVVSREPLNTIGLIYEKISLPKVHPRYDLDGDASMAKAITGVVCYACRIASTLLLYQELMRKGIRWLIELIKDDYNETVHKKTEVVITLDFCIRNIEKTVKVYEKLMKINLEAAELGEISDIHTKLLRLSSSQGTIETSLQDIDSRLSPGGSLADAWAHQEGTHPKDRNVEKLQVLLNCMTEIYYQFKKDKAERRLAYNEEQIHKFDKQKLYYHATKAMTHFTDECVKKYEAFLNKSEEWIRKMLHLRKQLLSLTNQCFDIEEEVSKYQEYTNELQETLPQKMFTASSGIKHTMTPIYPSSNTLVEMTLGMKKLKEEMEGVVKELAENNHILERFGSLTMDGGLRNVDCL
Method: as §1

[33] = target: T33, STK39 (Homo sapiens, UniProt Q9UEW8); details: 35 at 1 µM; read-out: % inhibition
T33 construct: purchased Eurofins DiscoverX (KINOMEscan)
Method: as §1

[34] = target: T34, ABL1(F317L)-nonphosphorylated (Homo sapiens, UniProt P00519, F317L); details: 35 at 1 µM; read-out: % inhibition
T34 construct: purchased Eurofins DiscoverX (KINOMEscan)
T34 sequence (P00519 whole entry F317L): as the sequence (P00519 whole entry E255K) above, with K255E, F317L counted along it
Method: as §1

[35] = target: T35, MAP4K4 (Homo sapiens, UniProt O95819); details: 35 at 1 µM; read-out: % inhibition
T35 construct: purchased Eurofins DiscoverX (KINOMEscan)
Method: as §1

[36] = target: T36, MKNK1 (Homo sapiens, UniProt Q9BUB5); details: 35 at 1 µM; read-out: % inhibition
T36 construct: purchased Eurofins DiscoverX (KINOMEscan)
Method: as §1

[37] = target: T37, SLK (Homo sapiens, UniProt Q9H2G2); details: 35 at 1 µM; read-out: % inhibition
T37 construct: purchased Eurofins DiscoverX (KINOMEscan)
Method: as §1

[38] = target: T38, EGFR(G719C) (Homo sapiens, UniProt P00533, G719C); details: 35 at 1 µM; read-out: % inhibition
T38 construct: purchased Eurofins DiscoverX (KINOMEscan)
Method: as §1

[39] = target: T39, BRAF (Homo sapiens, UniProt P15056); details: 35 at 1 µM; read-out: % inhibition
T39 construct: purchased Eurofins DiscoverX (KINOMEscan)
Method: as §1

[40] = target: T40, TGFBR2 (Homo sapiens, UniProt P37173)
T40 construct: purchased Eurofins DiscoverX (KINOMEscan)
T40 sequence (P37173 23-567): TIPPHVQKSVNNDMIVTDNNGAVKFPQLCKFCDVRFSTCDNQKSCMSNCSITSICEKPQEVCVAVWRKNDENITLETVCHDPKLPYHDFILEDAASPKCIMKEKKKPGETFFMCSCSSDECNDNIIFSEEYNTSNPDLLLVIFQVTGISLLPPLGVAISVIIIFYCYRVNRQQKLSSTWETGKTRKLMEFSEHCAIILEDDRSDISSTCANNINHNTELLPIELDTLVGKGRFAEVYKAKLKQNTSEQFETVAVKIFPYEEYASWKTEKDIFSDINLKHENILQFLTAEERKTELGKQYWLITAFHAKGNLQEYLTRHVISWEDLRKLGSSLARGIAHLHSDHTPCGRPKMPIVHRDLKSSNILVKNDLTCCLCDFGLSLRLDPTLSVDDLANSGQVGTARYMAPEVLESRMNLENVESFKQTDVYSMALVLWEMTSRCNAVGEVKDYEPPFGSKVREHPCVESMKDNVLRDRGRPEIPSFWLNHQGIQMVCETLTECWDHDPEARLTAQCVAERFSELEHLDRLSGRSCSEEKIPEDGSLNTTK
Method: as §1

[41] = target: T41, MLK3 (Homo sapiens, UniProt Q16584); details: 35 at 1 µM; read-out: % inhibition
T41 construct: purchased Eurofins DiscoverX (KINOMEscan)
T41 sequence (Q16584 whole entry): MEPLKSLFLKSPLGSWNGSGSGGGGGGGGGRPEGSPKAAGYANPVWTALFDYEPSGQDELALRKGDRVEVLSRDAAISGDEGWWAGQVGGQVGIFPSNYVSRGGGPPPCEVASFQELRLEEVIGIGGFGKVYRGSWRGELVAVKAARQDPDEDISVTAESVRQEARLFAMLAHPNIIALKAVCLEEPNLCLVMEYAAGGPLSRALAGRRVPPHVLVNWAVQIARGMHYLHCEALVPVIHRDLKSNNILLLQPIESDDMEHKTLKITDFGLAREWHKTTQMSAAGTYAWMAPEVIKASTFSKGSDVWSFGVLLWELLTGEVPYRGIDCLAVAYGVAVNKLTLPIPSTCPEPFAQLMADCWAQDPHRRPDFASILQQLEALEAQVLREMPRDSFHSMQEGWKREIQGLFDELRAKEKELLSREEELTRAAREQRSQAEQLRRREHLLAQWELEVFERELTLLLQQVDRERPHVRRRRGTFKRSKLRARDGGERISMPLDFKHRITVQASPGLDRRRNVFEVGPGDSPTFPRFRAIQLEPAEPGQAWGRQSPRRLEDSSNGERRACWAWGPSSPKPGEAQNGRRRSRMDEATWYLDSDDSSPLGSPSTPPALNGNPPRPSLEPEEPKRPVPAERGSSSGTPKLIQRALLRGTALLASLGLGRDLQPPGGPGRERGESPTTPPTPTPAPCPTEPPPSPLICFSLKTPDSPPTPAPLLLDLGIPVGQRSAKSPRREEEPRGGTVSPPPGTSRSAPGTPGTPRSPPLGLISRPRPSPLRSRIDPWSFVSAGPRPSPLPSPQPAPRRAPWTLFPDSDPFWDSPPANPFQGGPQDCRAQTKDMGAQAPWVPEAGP
Method: as §1

For `Brc1ccc2nccc(Nc3ccc4cn[nH]c4c3)c2c1` [Compound 35, 6-Bromo-N-(1H-indazol-6-yl)quinolin-4-amine], the activity at 1 µM [1] was 100%, the activity at 1 µM [2] was 100% and the activity at 1 µM [3] was 100%. It also gave an activity at 1 µM [4] of 100%, an activity at 1 µM [5] of 100% and an activity at 1 µM [6] of 80%. The activity at 1 µM [7] was 97%, the activity at 1 µM [8] was 100% and the activity at 1 µM [9] was 100%. It also gave an activity at 1 µM [10] of 100%, an activity at 1 µM [11] of 100% and an activity at 1 µM [12] of 88%. It also gave an activity at 1 µM [13] of 100%, an activity at 1 µM [14] of 100% and an activity at 1 µM [15] of 44%. For the same compound, the activity at 1 µM [16] was 100%, the activity at 1 µM [17] was 81% and the activity at 1 µM [18] was 95%. The activity at 1 µM [19] was 100%, the activity at 1 µM [20] was 100% and the activity at 1 µM [21] was 100%. The activity at 1 µM [22] was 100%, the activity at 1 µM [23] was 100% and the activity at 1 µM [24] was 100%. The activity at 1 µM [25] was 100%, the activity at 1 µM [26] was 100% and the activity at 1 µM [27] was 57%. The activity at 1 µM [28] was 100%, the activity at 1 µM [29] was 94% and the activity at 1 µM [30] was 100%. For the same compound, the activity at 1 µM [31] was 97%, the activity at 1 µM [32] was 76% and the activity at 1 µM [33] was 100%. It also gave an activity at 1 µM [34] of 78%, an activity at 1 µM [35] of 100% and an activity at 1 µM [36] of 79%. For the same compound, the activity at 1 µM [37] was 100%, the activity at 1 µM [38] was 83% and the activity at 1 µM [39] was 92%. The activity at 1 µM ([40]; 35 at 1 µM, read-out: % inhibition) was 18%, the inhibition at 1 µM ([40]; KinomeScan, screened at 1 μM, read-out: kinases inhibited at 1 μM: TGFBR2) was 82% and the activity at 1 µM [41] was 100%.
